Each block holds one molecule with its values, some of them ahead of it.
Assays:
CXXC5-DVL interaction = assay: In vitro CXXC5-DVL PPI inhibition (binding) assay, library screening; settings: compound 30 μM; FITC-tagged PTD-DBMP and DVL-PDZ domain; fluorescence intensity
Description: Screening for compounds that inhibit the CXXC5-DVL interaction. […] CELL. DEATH. DIFFER. […] Briefly, 5 mg/ml purified DVL-PDZ domain was incubated in each well of a 96-well Maxibinding Immunoplate (SPL, Seoul, Korea) at 4° C. for 16 h. After the addition of 10 μM FITC-tagged PTD-DBMP to each well, each compound in the chemical library or control (DMSO) was treated to the well at a final concentration of 30 μM. The fluorescence intensity was measured using a Fluorstar Optima microplate reader (BGM Lab Technologie, Ortenberg, Germany) and normalized as follows: “(‘compounds-treated group’−‘blank’)/(‘DMSO-treated control’−‘blank’)*100”.

[1] = system: GLP-1 and other Wnt/β-catenin signaling target genes (Tcf712, Axin2, Dvl1, Wisp1, Fosl1); assay: qPCR of GLP-1 and other Wnt/β-catenin signaling target genes in epiWAT of HFD-mice; assay type: in vivo; settings: phenotypes as observed in HFD-fed Cxxc5−/− mice, FIG. 2C
Description: Quantitative real-time polymerase chain reaction (PCR). Total RNA was extracted from ground tissue powder using TRIzol reagent (Invitrogen) according to the manufacturer's instructions. Reverse transcription was performed with M-MLV reverse transcriptase (Invitrogen) using 2 μg of total RNA. Synthesized cDNA was diluted to a concentration of 100 ng/μl. Quantitative PCR analyses were performed in the Rotor-gene Q real-time PCR cycler (Qiagen) using SYBR green reagent (Qiagen) with conditions of 95° C. for 10 min followed by 40 cycles at 95° C. for 5 s and 60° C. for 15 s. Relative quantification of mRNA levels was estimated using the comparative Ct method (ΔΔCt). Glp-1 mRNA values were normalized with respect to GAPDH.
(§1) Animals. The generation of Cxxc5^−/− mice has been described previously. Cxxc5 heterozygous mice were intercrossed for four generations to obtain littermate wild-type and Cxxc5^−/− mice and were maintained on a C57BL/6 background. Six-week-old Cxxc5^+/+ and Cxxc5^−/− mice were fed HFD for 8 weeks. Wild-type male C57BL/6 mice (KOATECH, Seoul, Korea) were fed HFD consisting of 60% calories from fat (Research Diet, D12492) for 8 weeks. To validate that the insulin resistance mouse model was successfully established, fasting glucose levels were assessed with a One Touch Ultra glucometer (LifeScan). […]

[2] = system: β-catenin, CXXC5 and p-GSK3β (S9) in H4/SWE cells; assay: Western blot assay in H4/SWE cells; assay type: cell-based; settings: FIG. 9A
Description: Western blot assay. H4 and H4/SWE Cells were ground with a mortar and pestle before lysis in RIPA buffer (150 mM NaCl, 10 mM Tris, pH 7.2, 0.1% SDS, 1.0% Triton X-100, 1% sodium deoxycholate, and 5 mM EDTA). Samples were separated on 6-12% SDS polyacrylamide gels and transferred onto PROTRAN nitrocellulose membranes (Schleicher and Schuell Co.). The membranes were blocked with PBS containing 5% non-fat dry skim milk and 0.07% (vol/vol) Tween 20 and incubated with antibody specific for β-catenin (1:1,000, Santa Cruz Biotechnology, Inc.), CXXC5 (1:500, Santa Cruz Biotechnology, Inc.), p-GSK3β(S9) (1:500, Santa Cruz Biotechnology, Inc.). The membranes were then incubated with horseradish peroxidase-conjugated anti-rabbit (1:5,000, Bio-Rad Laboratories) or anti-mouse (1:5000, Cell Signaling Technology) IgG secondary antibody. Protein bands were visualized with enhanced chemiluminescence (GE Healthcare) using a luminescent image analyzer, LAS-3000 (Fujifilm). Western blot bands were analyzed using Multi-Gauge V3.0 software (Fujifilm).

Wnt/β-catenin pathway = assay: pTOPFlash reporter assay in HEK293 cells; settings: HEK293 cells harboring the pTOPFlash reporter
[3] = system: secreted human amyloid β-42 in H4/SWE cells; assay: Human Aβ42 ELISA assay in H4/SWE cells; assay type: cell-based; settings: 24 h, FIG. 10
Description: Human Aβ42 ELISA assay. H4 or H4/SWE cells were cultured in Dulbecco's Modified Eagle's Medium (DMEM, Gibco) containing 10% fetal bovine serum (FBS) and grown to confluence in a 5% CO2 and 95% air humidified atmosphere. The cells were seeded in 6-well plate in DMEM supplemented with 10% FBS and allowed to adhere overnight. The cells were treated with each compound (1˜20 uM) for 24 h and collected in 1 ml of medium. The samples were treated with protease inhibitor cocktail (PIC) to avoid the degradation of Amyloid β by protease and centrifuged at 3000 rpm for 3 min. Experiments were performed according to the guidance of Human Aβ42 ELISA Kit protocol (Invitrogen). The amount of secreted Amyloid β was normalized by measuring total protein concentration.

serum active GLP-1 [4] = assay: Serum active GLP-1 ELISA in HFD-mice; assay type: in vivo; settings: compared with mice fed on NCD, FIG. 4A
Description: (§2) Blood chemistry. Total blood of mice was collected by cardiac puncture. The blood was allowed to clot for 30 min and was then centrifuged for 30 min at 3,000×g to obtain supernatant to measure active GLP-1 concentration. ELISA assay kits were used to assess serum active GLP-1 (7-36).
as §1, with “(LifeScan). Subsequently, each HFD-fed mouse with a fasting glucose level higher than 16.7 mmol/L was orally administered A3334 (25 mg kg^−1), sitagliptin (50 mg kg^−1), or metformin (100 mg kg^−1) each day for 5 days at weeks 8 and 12. After the removal of the drugs, mice were maintained for 3 weeks on the HFD. To monitor pancreas regeneration, six-week-old Cxxc5^+/+ and Cxxc5^−/− mice were fed an HFD as above.” for “(LifeScan).”

[5] = system: β-catenin in H4/SWE cells; assay: Immunocytochemical analysis of β-catenin in H4/SWE cells; assay type: cell-based; settings: FIG. 9B
Description: Immunocytochemical analysis. H4 or H4/SWE cells treated with each compound were washed with PBS and fixed in 4% (wt/vol) paraformaldehyde (PFA) in PBS for 15 min at room temperature. The cells were then washed with PBS and permeabilized with 0.1% (vol/vol) Triton X-100 in PBS for 15 min. After washing with PBS, the cells were incubated with 10% bovine serum albumin (BSA) in PBS for 30 min and then with antibodies specific for β-catenin (1:100; BD) overnight at 4° C. The cells were washed in PBS and incubated with Alexa Fluor 488—conjugated IgG secondary antibody (1:400; Molecular Probes) at room temperature for 1 h. Cell nuclei were counterstained with DAPI for 10 min and the stained samples were examined under a LSM510 META microscope.

serum active GLP-1 [6] = assay: Serum active GLP-1 ELISA in HFD-fed, STZ-induced diabetes mice; assay type: in vivo
Description: as §2
as §1, with “(LifeScan). Subsequently, each HFD-fed mouse with a fasting glucose level higher than 16.7 mmol/L was orally administered A3334 (25 mg kg^−1), sitagliptin (50 mg kg^−1), or metformin (100 mg kg^−1) each day for 5 days at weeks 8 and 12. After the removal of the drugs, mice were maintained for 3 weeks on the HFD. To monitor pancreas regeneration, six-week-old Cxxc5^+/+ and Cxxc5^−/− mice were fed an HFD as above.” for “(LifeScan).”

serum active GLP-1 [7] = assay: Serum active GLP-1 in NASH mouse models (STZ-induced, MCD-induced); assay type: in vivo, mice; settings: FIG. 6A-6B
Description: FIG. 6A. Graph illustrating the serum active GLP-1 levels in NCD-mice (“Chow”) and RFD-fed, STZ-induced NASH mice that were treated with vehicle, A3334, A3051, selonsertib, and ocaliva.
FIG. 6B. Graph illustrating the serum active GLP-1 levels in NCD-mice (“Chow”) and RFD-fed, methionine-choline deficient diet (MCD)-induced NASH mice that were treated with vehicle, A3334, A3051, selonsertib, ocaliva (“OCA”), and A3486.
as §2

[8] = system: rat neuronal stem cells (NSCs); assay: Neural stem cell (NSC) differentiation, cell morphology; assay type: cell-based; settings: 0, 1, 5 and 10 μM; 24 hours; medium with bFGF
Description: Neural stem cell (NSCs) culture. NSCs were extracted from the forebrain of E14.5 rats and maintained in an undifferentiated state by culturing in medium containing 10 ng/ml of bFGF (Peprotech). Undifferentiated NSCs (1×10^5) were treated with of each compound (10 μM) and cell morphology was assessed by capturing black and white images of the cells after 24 h.
Referring now to FIG. 7A-7B, NSCs were isolated form E14 mice embryos, and maintained in the maintenance medium (supplemented) with bFGF and EGF. The neuronal differentiation was induced by treating different concentrations of A3051. Cell morphologies were captured at 24 hours after treatment of the indirubin analog 3051 using a bright-field optical microscope.

SMILES: NC(Cc1cc(O)c(O)cc1O)C(=O)O (stereo not shown) [Compound 10]
- CXXC5-DVL inhibitory activity (%) (CXXC5-DVL interaction): 90.32%

SMILES: N[C@@H](CC(=O)N1CCn2c(nnc2C(F)(F)F)C1)Cc1cc(F)c(F)cc1F [sitagliptin, reference compound]
- relative expression levels of GLP-1 and other Wnt/β-catenin signaling target genes in epiWAT [1]: did not

SMILES: COC(=O)C1=C(C)N/C(=C/c2cc(C)n(-c3ccccc3F)c2C)C1=O [Compound 4]
- CXXC5-DVL inhibitory activity (%) (CXXC5-DVL interaction): 87.58%

SMILES: COc1ccc(C2CC(C(F)(F)F)n3ncc(C(=O)O)c3N2)cc1OC (stereo not shown) [Compound 2]
- CXXC5-DVL inhibitory activity (%) (CXXC5-DVL interaction): 90.63%

SMILES: O=C1Nc2ccccc2/C1=C1/Nc2ccccc2/C1=N\O [Compound 12, Indirubin-3′-oxime, reference compound]
- CXXC5-DVL inhibitory activity (%) (CXXC5-DVL interaction): 89%
- activation of Wnt/β-catenin pathway (reporter assay) (Wnt/β-catenin pathway): showed effectiveness
- level of β-catenin (western blot) [2]: restored
- p-GSK3β (S9) (western blot) [2]: increased

SMILES: COc1ccc(C2CC(=O)C3=C(C2)Nc2onc(C)c2C3c2ccc(O)c(O)c2)cc1OC (stereo not shown) [Compound 7]
- CXXC5-DVL inhibitory activity (%) (CXXC5-DVL interaction): 90.87%

SMILES: O=c1c(O)c(-c2cc(O)c(O)c(O)c2)oc2cc(O)cc(O)c12 [Compound 13]
- CXXC5-DVL inhibitory activity (%) (CXXC5-DVL interaction): 85.22%

SMILES: CCN(CC)S(=O)(=O)c1ccc(OC)c(Nc2cc(-c3ccccc3)nc(C)n2)c1 [Compound 6]
- CXXC5-DVL inhibitory activity (%) (CXXC5-DVL interaction): 58.24%

SMILES: CN(C)c1ccc(O)c2c1C[C@H]1C[C@H]3[C@H](N(C)C)C(O)=C(C(N)=O)C(=O)[C@@]3(O)C(O)=C1C2=O.Cl [Compound 16]
- CXXC5-DVL inhibitory activity (%) (CXXC5-DVL interaction): 87.9%

SMILES: Br.CN1CCc2cc(O)cc3c2[C@H]1Cc1ccc(O)c(O)c1-3 [Compound 9]
- CXXC5-DVL inhibitory activity (%) (CXXC5-DVL interaction): 89.41%

SMILES: O=C(O)C1Sc2[nH]c(=O)sc2C2c3cc(Br)cc(Br)c3OC(=O)C12 (stereo not shown) [Compound 5]
- CXXC5-DVL inhibitory activity (%) (CXXC5-DVL interaction): 90.48%

SMILES: O=c1cc(O)cc(/C=C/c2ccc(O)c(O)c2)o1 [Compound 11]
- CXXC5-DVL inhibitory activity (%) (CXXC5-DVL interaction): 90.05%

SMILES: O=C1Nc2cc(Br)ccc2/C1=C1/Nc2ccccc2/C1=N\O [Compound 8, 6-Bromoindirubin-3′-oxime, reference compound]
- activation of Wnt/β-catenin pathway (reporter assay) (Wnt/β-catenin pathway): showed effectiveness
- level of β-catenin (western blot) [2]: restored
- p-GSK3β (S9) (western blot) [2]: increased

SMILES: Cc1cc(F)c(C(=O)Nc2cccc(-c3nncn3C(C)C)n2)cc1-n1cnc(C2CC2)c1 [selonsertib, reference compound]
- active GLP-1 expression in blood serum (serum active GLP-1 [7]): did not have any effect

SMILES: Cc1cc(C)c2c(O)nc(SCC(=O)c3ccc(O)c(O)c3)nc2n1 [Compound 3]
- CXXC5-DVL inhibitory activity (%) (CXXC5-DVL interaction): 88.19%

Now from value to molecule, other results behind:

- CXXC5-DVL inhibitory activity (%) (CXXC5-DVL interaction): 85.25%
SMILES: Oc1cc(O)cc(/C=C/c2ccc(O)c(O)c2)c1 [Compound 17]

- p-GSK3β (S9) (western blot) [2]: increased
SMILES: O=C1Nc2ccccc2/C1=C1/Nc2ccccc2C1=O [Indirubin, reference compound]
- level of β-catenin (western blot) [2]: restored

- p-GSK3β (S9) (western blot) [2]: increased
SMILES: COc1ccc2c(c1)/C(=C1/Nc3ccccc3/C1=N\O)C(=O)N2 [Compound A3334, 5-Methoxyindirubin-3′-oxime]
- relative expression levels of GLP-1 and other Wnt/β-catenin signaling target genes in epiWAT [1]: restored the phenotypes
- secretion of Aβ-42 [3]: inhibited
- serum active GLP-1 levels (serum active GLP-1 [4]): restored
- nuclear translocation of β-catenin [5]: increased
- level of CXXC5 (western blot) [2]: decreased
- level of β-catenin (western blot) [2]: restored
- serum active GLP-1 levels (serum active GLP-1 [6]; STZ-induced diabetic HFD-mice, compared with mice fed on NCD, FIG. 4B): restored
- active GLP-1 expression in blood serum compared to the sitagliptin treatment (serum active GLP-1 [6]; compared to the effect of sitagliptin (positive control)): significantly rescued (increased)
- active GLP-1 expression in blood serum (serum active GLP-1 [7]): significantly rescued (increased)

- CXXC5-DVL inhibitory activity (%) (CXXC5-DVL interaction): 85.41%
SMILES: O=c1c(O)c(-c2ccc(O)cc2O)oc2cc(O)cc(O)c12 [Compound 15]

- CXXC5-DVL inhibitory activity (%) (CXXC5-DVL interaction): 86.81%
SMILES: Cl.O=C(OCCN1CCOCC1)C1(c2ccccc2)CCCCC1 [Compound 18]

- p-GSK3β (S9) (western blot) [2]: increased
SMILES: CO/N=C1/C(=C2/C(=O)Nc3cc(Cl)c(Cl)cc32)Nc2ccccc21 [Compound A3051, 5,6-dichloroindirubin-3′-methoxime]
- neural differentiation of NSCs (cell morphology) [8]: induced neural differentiation
- secretion of Aβ-42 [3]: inhibited
- nuclear translocation of β-catenin [5]: increased
- level of CXXC5 (western blot) [2]: decreased
- level of β-catenin (western blot) [2]: restored
- active GLP-1 expression in blood serum (serum active GLP-1 [7]): significantly rescued (increased)

- CXXC5-DVL inhibitory activity (%) (CXXC5-DVL interaction): 85.22%
SMILES: CC(N)(Cc1ccc(O)c(O)c1)C(=O)O (stereo not shown) [Compound 14]

Source: patent US12303490B2, “Compositions and methods for suppressing and/or treating neurodegenerative diseases and/or a clinical condition thereof” (CK Regeon Inc., priority 2019, dated 2025)
